Reference: US20080234262A1 (Wyeth, priority 2007, published 2008)

Biological target: PI3K (Homo sapiens, UniProt P42336)
Experiment: Fluorescence polarization assay for PI3K;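 further: PI3K kinase reaction on PIP2 with ATP, 30-60 min, product sensed by GST-GRP with red probe in fluorescence polarization (mP), controls without enzyme and at zero time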
Format: biochemical
Details: PI3Kα; read-out: PI3Kα IC50

Sequence of PI3K (P42336 whole entry): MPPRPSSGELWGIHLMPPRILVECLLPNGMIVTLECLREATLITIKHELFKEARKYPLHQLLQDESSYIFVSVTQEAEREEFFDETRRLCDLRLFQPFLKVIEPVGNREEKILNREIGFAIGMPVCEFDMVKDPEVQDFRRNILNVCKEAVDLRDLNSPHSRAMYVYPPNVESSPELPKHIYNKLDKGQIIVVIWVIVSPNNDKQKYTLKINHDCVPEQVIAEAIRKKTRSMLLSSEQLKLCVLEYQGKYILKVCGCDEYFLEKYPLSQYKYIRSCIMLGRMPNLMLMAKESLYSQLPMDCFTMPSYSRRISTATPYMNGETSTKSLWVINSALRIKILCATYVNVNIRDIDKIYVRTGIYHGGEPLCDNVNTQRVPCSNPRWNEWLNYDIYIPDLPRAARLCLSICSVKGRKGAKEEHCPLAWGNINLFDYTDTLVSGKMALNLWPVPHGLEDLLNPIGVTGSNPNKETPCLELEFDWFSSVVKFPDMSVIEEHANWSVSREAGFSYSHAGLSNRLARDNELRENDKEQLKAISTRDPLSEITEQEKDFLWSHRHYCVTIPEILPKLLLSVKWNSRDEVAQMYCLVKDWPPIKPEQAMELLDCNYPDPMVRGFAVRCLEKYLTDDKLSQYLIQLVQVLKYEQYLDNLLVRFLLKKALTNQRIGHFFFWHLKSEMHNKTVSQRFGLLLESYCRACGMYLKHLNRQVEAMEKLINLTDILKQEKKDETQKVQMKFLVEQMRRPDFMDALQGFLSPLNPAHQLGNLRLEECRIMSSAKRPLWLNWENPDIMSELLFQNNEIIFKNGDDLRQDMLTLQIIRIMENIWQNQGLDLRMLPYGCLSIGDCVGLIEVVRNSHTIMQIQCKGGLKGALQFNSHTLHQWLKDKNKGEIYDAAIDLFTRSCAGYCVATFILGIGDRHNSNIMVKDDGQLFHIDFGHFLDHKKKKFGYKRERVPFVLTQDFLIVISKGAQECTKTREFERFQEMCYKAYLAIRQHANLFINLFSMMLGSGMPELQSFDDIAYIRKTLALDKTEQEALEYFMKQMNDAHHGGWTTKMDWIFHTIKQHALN
Sequence of PI3K (P27986 whole entry partner): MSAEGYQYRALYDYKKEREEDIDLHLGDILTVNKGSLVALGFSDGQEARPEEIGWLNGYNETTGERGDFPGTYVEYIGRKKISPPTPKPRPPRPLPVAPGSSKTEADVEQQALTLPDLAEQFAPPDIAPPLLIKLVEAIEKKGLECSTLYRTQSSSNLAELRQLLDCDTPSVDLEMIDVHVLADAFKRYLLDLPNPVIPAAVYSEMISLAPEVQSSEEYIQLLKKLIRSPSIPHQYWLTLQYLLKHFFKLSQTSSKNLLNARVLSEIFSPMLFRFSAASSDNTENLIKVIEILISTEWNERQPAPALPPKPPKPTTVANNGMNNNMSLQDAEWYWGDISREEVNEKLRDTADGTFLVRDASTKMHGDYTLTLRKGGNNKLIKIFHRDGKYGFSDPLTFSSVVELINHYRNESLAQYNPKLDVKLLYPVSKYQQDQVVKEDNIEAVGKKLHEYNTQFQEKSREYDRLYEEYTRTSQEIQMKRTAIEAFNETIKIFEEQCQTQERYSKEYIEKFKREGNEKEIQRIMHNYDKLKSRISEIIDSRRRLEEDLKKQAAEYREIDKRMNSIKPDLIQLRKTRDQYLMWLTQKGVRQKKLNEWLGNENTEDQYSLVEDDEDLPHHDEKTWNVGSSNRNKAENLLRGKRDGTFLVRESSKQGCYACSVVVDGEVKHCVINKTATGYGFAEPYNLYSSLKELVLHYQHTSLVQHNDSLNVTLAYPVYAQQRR

NC(=O)Cc1ccc(-c2nc(N3CCOCC3)c3cnn(C4CCN(Cc5ccccc5)CC4)c3n2)cc1 [Compound 370, 2-{4-[1-(1-benzylpiperidin-4-yl)-4-morpholin-4-yl-1H-pyrazolo[3,4-d]pyrimidin-6-yl]phenyl}acetamide]
IC50: 3130 nM

CNC(=O)Nc1ccc(-c2nc(N3CCOCC3)c3cnn(C4CCN(C(=O)COC)CC4)c3n2)cc1 [Compound 718, 1-(4-{1-[1-(methoxyacetyl)piperidin-4-yl]-4-morpholin-4-yl-1H-pyrazolo[3,4-d]pyrimidin-6-yl}phenyl)-3-methylurea]
IC50: 287 nM

Nc1ccc(-c2nc(N3CCOCC3)c3cn[nH]c3n2)cc1 [Example 285, 4-(4-morpholin-4-yl-1H-pyrazolo[3,4-d]pyrimidin-6-yl)aniline]
IC50: 1610 nM

CNC(=O)Nc1ccc(-c2nc(N3CCOCC3)c3cnn(C4CCN(Cc5cccc(OC)c5)CC4)c3n2)cc1 [Compound 645, 1-(4-{1-[1-(3-methoxybenzyl)piperidin-4-yl]-4-morpholin-4-yl-1H-pyrazolo[3,4-d]pyrimidin-6-yl}phenyl)-3-methylurea]
IC50: 43 nM

COCOc1cncc(-c2nc(N3CCOCC3)c3cnn(C4CCN(Cc5ccccc5)CC4)c3n2)c1 [Compound 249, 1-(1-benzylpiperidin-4-yl)-6-[5-(methoxymethoxy)pyridin-3-yl]-4-morpholin-4-yl-1H-pyrazolo[3,4-d]pyrimidine]
IC50: 2000 nM

c1ccc(CN2CCC(n3ncc4c(N5CCOCC5)nc(-c5ccc6c(c5)OCO6)nc43)CC2)cc1 [Example 33]
IC50: 1160 nM

COC(=O)Nc1ccc(-c2nc(N3CCOCC3)c3cnn(C4CCN(C(=O)N5CCN(C)CC5)CC4)c3n2)cc1 [Compound 692, methyl [4-(1-{1-[(4-methylpiperazin-1-yl)carbonyl]piperidin-4-yl}-4-morpholin-4-yl-1H-pyrazolo[3,4-d]pyrimidin-6-yl)phenyl]carbamate]
IC50: 725 nM

Cn1ncc2c(N3CCOCC3)nc(-c3cccnc3)nc21 [Compound 1]
IC50: 813 nM

O=C(NCCO)Nc1ccc(-c2nc(N3CCOCC3)c3cnn(C4CCN(C(=O)c5ccccc5)CC4)c3n2)cc1 [Compound 630, 1-{4-[1-(1-benzoylpiperidin-4-yl)-4-morpholin-4-yl-1H-pyrazolo[3,4-d]pyrimidin-6-yl]phenyl}-3-(2-hydroxyethyl)urea]
IC50: 229 nM

NC(=O)Nc1cccc(-c2nc(N3CCOCC3)c3cnn(C4CCN(Cc5ccccc5)CC4)c3n2)c1 [Compound 229, N-{3-[1-(1-benzylpiperidin-4-yl)-4-morpholin-4-yl-1H-pyrazolo[3,4-d]pyrimidin-6-yl]phenyl}urea]
IC50: 2170 nM

Nc1ccc(-c2nc(N3CCOCC3)c3cn[nH]c3n2)cc1 [Compound 531, 4-(4-morpholin-4-yl-1H-pyrazolo[3,4-d]pyrimidin-6-yl)aniline]
IC50: 1610 nM

O=C(NCCF)Nc1ccc(-c2nc(N3CCOCC3)c3cnn(C4CCN(C(=O)c5cccnc5)CC4)c3n2)c(F)c1 [Compound 707, 1-(2-fluoroethyl)-3-(3-fluoro-4-{4-morpholin-4-yl-1-[1-(pyridin-3-ylcarbonyl)piperidin-4-yl]-1H-pyrazolo[3,4-d]pyrimidin-6-yl}phenyl)urea]
IC50: 1730 nM

CCNC(=O)Nc1cc(F)c(-c2nc(N3CCOCC3)c3cnn(C4CCN(C(=O)c5cccnc5)CC4)c3n2)cc1F [Compound 710, 1-(2,5-difluoro-4-{4-morpholin-4-yl-1-[1-(pyridin-3-ylcarbonyl)piperidin-4-yl]-1H-pyrazolo[3,4-d]pyrimidin-6-yl}phenyl)-3-ethylurea]
IC50: 3110 nM

COC(=O)Nc1ccc(-c2nc(N3CCOCC3)c3cnn(C4CCNCC4)c3n2)cc1 [Compound 703, methyl [4-(4-morpholin-4-yl-1-piperidin-4-yl-1H-pyrazolo[3,4-d]pyrimidin-6-yl)phenyl]carbamate]
IC50: 1070 nM

Nc1ccc(-c2nc(N3CCOCC3)c3cnn(C4CCN(C(=O)c5cccnc5)CC4)c3n2)c(F)c1 [Compound 704, 3-fluoro-4-{4-morpholin-4-yl-1-[1-(pyridin-3-ylcarbonyl)piperidin-4-yl]-1H-pyrazolo[3,4-d]pyrimidin-6-yl}aniline]
IC50: 4030 nM

CNC(=O)Nc1ccc(-c2nc(N3CCOCC3)c3cnn(C4CCN(Cc5ccc(Cl)cc5)CC4)c3n2)cc1 [Compound 639, 1-(4-{1-[1-(4-chlorobenzyl)piperidin-4-yl]-4-morpholin-4-yl-1H-pyrazolo[3,4-d]pyrimidin-6-yl}phenyl)-3-methylurea]
IC50: 18 nM

COC(=O)Nc1ccc(-c2nc(N3CCOCC3)c3cnn(C4CCN(C(=O)c5ccc(F)cc5)CC4)c3n2)cc1 [Compound 689, methyl (4-{1-[1-(4-fluorobenzoyl)piperidin-4-yl]-4-morpholin-4-yl-1H-pyrazolo[3,4-d]pyrimidin-6-yl}phenyl)carbamate]
IC50: 989 nM

C=CC(=O)N1CCC(n2ncc3c(N4CCOCC4)nc(-c4ccc(NC(=O)OC)cc4)nc32)CC1 [Compound 702, methyl {4-[1-(1-acryloylpiperidin-4-yl)-4-morpholin-4-yl-1H-pyrazolo[3,4-d]pyrimidin-6-yl]phenyl}carbamate]
IC50: 1980 nM

CNC(=O)Nc1ccc(-c2nc(N3CCOCC3)c3cnn(C4CCN(Cc5ccncc5)CC4)c3n2)cc1 [Compound 670, 1-methyl-3-(4-{4-morpholin-4-yl-1-[1-(pyridin-4-ylmethyl)piperidin-4-yl]-1H-pyrazolo[3,4-d]pyrimidin-6-yl}phenyl)urea]
IC50: 112 nM

COC(=O)Nc1ccc(-c2nc(N3CCOCC3)c3cnn(C4CCN(C(=O)c5cnccc5C)CC4)c3n2)cc1 [Example 440, methyl [4-(1-{1-[(4-methylpyridin-3-yl)carbonyl]piperidin-4-yl}-4-morpholin-4-yl-1H-pyrazolo[3,4-d]pyrimidin-6-yl)phenyl]carbamate]
IC50: 2500 nM

O=C(O)Cc1ccc(-c2nc(N3CCOCC3)c3cnn(C4CCN(Cc5ccccc5)CC4)c3n2)cc1 [Compound 353, {4-[1-(1-benzylpiperidin-4-yl)-4-morpholin-4-yl-1H-pyrazolo[3,4-d]pyrimidin-6-yl]phenyl}acetic acid]
IC50: 1260 nM

O=C(NCCF)Nc1cc(F)c(-c2nc(N3CCOCC3)c3cnn(C4CCN(C(=O)c5cccnc5)CC4)c3n2)cc1F [Compound 711, 1-(2,5-difluoro-4-{4-morpholin-4-yl-1-[1-(pyridin-3-ylcarbonyl)piperidin-4-yl]-1H-pyrazolo[3,4-d]pyrimidin-6-yl}phenyl)-3-(2-fluoroethyl)urea]
IC50: 2980 nM

O=C(NCc1ccco1)Nc1ccc(-c2nc(N3CCOCC3)c3cnn(C4CCN(Cc5cccnc5)CC4)c3n2)cc1 [Compound 376, 1-(2-furylmethyl)-3-(4-{4-morpholin-4-yl-1-[1-(pyridin-3-ylmethyl)piperidin-4-yl]-1H-pyrazolo[3,4-d]pyrimidin-6-yl}phenyl)urea]
IC50: 359 nM

COCOc1cncc(-c2nc(N3CCOCC3)c3cnn(C4CCN(Cc5ccccc5)CC4)c3n2)c1 [Compound 931, 1-(1-benzylpiperidin-4-yl)-6-[5-(methoxymethoxy)pyridin-3-yl]-4-morpholin-4-yl-1H-pyrazolo[3,4-d]pyrimidine]
IC50: 2000 nM

CNC(=O)Nc1ccc(-c2nc(N3CCOCC3)c3cnn(-c4ccccc4)c3n2)cc1 [Compound 543, 1-methyl-3-[4-(4-morpholin-4-yl-1-phenyl-1H-pyrazolo[3,4-d]pyrimidin-6-yl)phenyl]urea]
IC50: 50 nM

CNC(=O)Nc1ccc(-c2nc(N3CCOCC3)c3cnn(C4CCN(Cc5cccc(Cl)c5)CC4)c3n2)cc1 [Compound 640, 1-(4-{1-[1-(3-chlorobenzyl)piperidin-4-yl]-4-morpholin-4-yl-1H-pyrazolo[3,4-d]pyrimidin-6-yl}phenyl)-3-methylurea]
IC50: 42 nM

Cn1ncc2c(N3CCOCC3)nc(-c3ccoc3)nc21 [Compound 3]
IC50: 915 nM

CNC(=O)Nc1ccc(-c2nc(N3CCOCC3)c3cnn(C4CCN(C(=O)c5ccncc5)CC4)c3n2)cc1 [Compound 661, 1-{4-[1-(1-isonicotinoylpiperidin-4-yl)-4-morpholin-4-yl-1H-pyrazolo[3,4-d]pyrimidin-6-yl]phenyl}-3-methylurea]
IC50: 160 nM

c1ccc(CN2CCC(n3ncc4c(N5CCOCC5)nc(-c5ccc6ncccc6c5)nc43)CC2)cc1 [Compound 369, 6-[1-(1-benzylpiperidin-4-yl)-4-morpholin-4-yl-1H-pyrazolo[3,4-d]pyrimidin-6-yl]quinoline]
IC50: 466 nM

COC(=O)Nc1ccc(-c2nc(N3CCOCC3)c3cnn(C4CCN(C(=O)c5ccc(F)cc5F)CC4)c3n2)cc1 [Compound 693, methyl (4-{1-[1-(2,4-difluorobenzoyl)piperidin-4-yl]-4-morpholin-4-yl-1H-pyrazolo[3,4-d]pyrimidin-6-yl}phenyl)carbamate]
IC50: 800 nM

CCNC(=O)Nc1ccc(-c2nc(N3CCOCC3)c3cnn(C4CCN(Cc5cccnc5)CC4)c3n2)cc1F [Example 372, 1-ethyl-3-(2-fluoro-4-{4-morpholin-4-yl-1-[1-(pyridin-3-ylmethyl)piperidin-4-yl]-1H-pyrazolo[3,4-d]pyrimidin-6-yl}phenyl)urea]
IC50: 424 nM

c1cc2cc(-c3nc(N4CCOCC4)c4cn[nH]c4n3)ccc2[nH]1 [Compound 929, 6-(1H-indol-5-yl)-4-morpholin-4-yl-1H-pyrazolo[3,4-d]pyrimidine]
IC50: 939 nM

CNC(=O)Nc1ccc(-c2nc(N3CCOCC3)c3cnn(C4CCN(C(=O)c5cccnc5)CC4)c3n2)cc1 [Example 226, 1-methyl-3-(4-{4-morpholin-4-yl-1-[1-(pyridin-3-ylcarbonyl)piperidin-4-yl]-1H-pyrazolo[3,4-d]pyrimidin-6-yl}phenyl)urea]
IC50: 548 nM

COC(=O)Nc1cccc(-c2nc(N3CCOCC3)c3cnn(C4CCN(Cc5ccccc5)CC4)c3n2)c1 [Compound 227, methyl {3-[1-(1-benzylpiperidin-4-yl)-4-morpholin-4-yl-1H-pyrazolo[3,4-d]pyrimidin-6-yl]phenyl}carbamate]
IC50: 9020 nM

COC(=O)Nc1ccc(-c2nc(N3CCOCC3)c3cnn(C4CCN(Cc5cccnc5OC)CC4)c3n2)cc1 [Compound 696, methyl [4-(1-{1-[(2-methoxypyridin-3-yl)methyl]piperidin-4-yl}-4-morpholin-4-yl-1H-pyrazolo[3,4-d]pyrimidin-6-yl)phenyl]carbamate]
IC50: 1830 nM
